# Measured values as given in publication PMC13439108, “An antibody–drug conjugate active against antibiotic-resistant Neisseria gonorrhoeae” (Proceedings of the National Academy of Sciences of the …, 2026).
# Where a SMILES comes first, the peptide text is derived from it. [ ]: non-standard residue; d: D form. The star is where a group is joined. d(aIle) = CC[C@H](C)[C@@H](N)C(=O)O; dDab = NCC[C@@H](N)C(=O)O; Octanoyl = CCCCCCCC(=O)*; Dab = NCC[C@H](N)C(=O)O; AEEA = NCCOCCOCC(=O)O
# Legend:
# [1] = system: human erythrocytes; assay: Hemolysis of human erythrocytes; format: cell-based
# Protocol: For hemolysis, whole human blood (1 ml; K2EDTA; Cambridge Bioscience) was washed in PBS then 0.5% added to an equal volume of peptides or ADCs in 96-well V-bottomed polypropylene plates and incubated at 37°C for 1 hr. Cells were pelleted at 1,000 × g for 10 min and the absorbance at OD415 measured. Positive (melittin, 2.5 µM, Merck Life Science) and negative (PBS) controls were normalised as 100 and 0% hemolysis, respectively. […]
# [2] = system: N. gonorrhoeae FA1090ΔIgAP; details: microdilution in FB, ~5 × 10^4 CFU, 24 hr, 37°C, 5% CO2
# Protocol: (§1) columns (ThermoFisher scientific). Activated mAb was added to 0.9 mg of Oct-TriA1 analogues (synthesised by ISCA Biochemicals, UK) and incubated at room temperature for 60 min. ADCs were dialysed using slide-A-Lyzer cassette (20K MWCO, ThermoFisher scientific) into PBS overnight at 4 °C […]
# (§2) MALDI-TOF MS analysis for determination of intact mass mAbs or ADCs with a concentration of 1 mg/mL were acidified with 1% trifluoroacetic acid and mixed with Super DHB matrix, 1 μl was spotted onto an MTP Anchorchip 600/384. For every mAb, three sample spots were prepared from the same solution using three protocols advised by the manufacturer. MALDI-TOF measurements were performed on a Microflex LRF mass spectrometer, equipped with a 60Hz nitrogen laser at 337nm. Number of peptides conjugated was calculated using the MALDI-TOF molecular weights (MW) [MW = M+] of each ADC, the unconjugated antibody (mAb), and the molecular weights of Oct-TriA1 analogues using the following equation.
# (§3) Number of peptides = MW ADC − MW mAb […]
# (§4) Determination of Oct-TriA1 Minimum Inhibitory Concentration (MIC)
# (§5) N. gonorrhoeae was resuspended in PBS to an ODA600 1.0, and ̴5 × 10^4 CFU added to wells of a microdilution plate containing dilutions of antimicrobials in FB. Plates were incubated for 24 hr at […]
# (§6) 37°C, in 5% CO2 then 10 μl aliquots plated onto GCB agar. The MIC was defined as the lowest concentration of an antimicrobial that prevented bacterial growth. […]
# (§7) Peptide concentration in ADC preparations
# (§8) Peptide concentrations for ADCs were calculated from the antibody concentration, the drug-to-antibody ratio (DAR), and the peptide molecular weight using the following formula:
# (§9) Conc. peptide (µg/mL) = Conc. ADC (µg/mL) × DAR x MWpeptide (Da) […]
# (§10) Where Conc. ADC is the ADC/ mAb concentration, MWADC is the mAb molecular weight (150 kDa), MWpeptide is the peptide molecular weight and DAR is the average number of peptides per conjugate.
# (§11) This formula was used to convert ADC concentrations to peptide concentrations for all assays. […]
# [3] = system: N. gonorrhoeae MS11ΔIgAP; details: microdilution in FB, ~5 × 10^4 CFU, 24 hr, 37°C, 5% CO2
# Protocol: as §1, §2, §3, §4, §5, §6, §7, §8, §9, §10, §11
# [4] = system: HK-2 cells; assay: MTT cell viability; format: cell-based, human; details: n = 3
# Protocol: HK-2 cells (CRL-2190™, Americab Type Culutre Collection (ATCC)), a proximal renal tubule cell(7), and End1/E6E7 (CRL-2615™, ATCC) upper cervical epithelial cells(8) were cultured in Keratinocyte Serum Free Medium (Invitrogen, Life Technologies Ltd.) with human recombinant EGF (5 ng ml-1) and bovine pituitary extract (0.05 mg ml−1) at 37°C in 5% CO2. […]
# Cell viability was assessed by 3-(4,5-dimethylthiazol-2-yl)-2,5-diphenyl-2H-tetrazolium bromide (MTT) assay(9); 200 µl fresh cell media and 250 µg of MTT was added to cells. Plates were Incubated at 37 °C, 5% CO2 for 3 hr then 200 µl of DMSO was added to wells with 25 µl glycine buffer (0.1 M glycine, 0.1 M NaCl pH 10.5) and shaken at 1000 r.p.m. for 10 min. Absorbance was read at OD570 nm. Cell viability was calculated as (sample absorbance – cell free blank/media control absorbance) x100.
# [5] = system: N. gonorrhoeae G97687 (MDR isolate); details: G97687, MDR isolate resistant to ESCs and azithromycin; microdilution in FB, 24 hr, 37°C, 5% CO2
# Protocol: as §4, §5, §6, §7, §8, §9, §10, §11
# [6] = system: N. gonorrhoeae FA1090; assay: Time-to-kill assay; format: cell-based, Neisseria gonorrhoeae; details: FA1090, 50 μg mL^−1 of the AMP, GW medium; n = 3
# Protocol: (§12) Fig. 4. […] (C) Time-to-kill curve analysis with ADCs protocol. N. gonorrhoeae were grown for 24 h prior to harvesting supernatant with or without IgAP, wild-type, and ΔigAP, respectively. Supernatant was dialyzed into fresh media prior to inoculating with respective N. gonorrhoeae strains. After 3 h growth, ADCs or peptides were added, and CFU/mL was calculated every 30 min for 4 h. […] All data shown are the mean ± SD of CFU/ml (n = 3).
# (§13) 37°C, in 5% CO2 then 10 μl aliquots plated onto GCB agar. The MIC was defined as the lowest concentration of an antimicrobial that prevented bacterial growth.
# (§14) Determination of N. gonorrhoeae resistance to Oct-TriA1
# (§15) Single colonies of N. gonorrhoeae FA1090 were inoculated into 2 mL of FB media supplemented with 1% Vitox (Oxoid) and grown overnight. After 24 hours, 240 µl of a 1/ 5,000 dilution of FA1090 in 2x FB was added to a 48-well plate containing 2-fold dilutions of either Oct-TriA1-c (final concentration, 12.5 µg/ml to 0.2 µg/ml) or ciprofloxacin (final concentration, 16.4 to 0.001 µg/ml) in a total volume of 480
# (§16) µl. Plates were incubated at 37 °C, 5% CO2 with shaking (180 rpm). After 24 hours, ODA600 of each well […]
# (§17) Peptide concentrations for ADCs were calculated from the antibody concentration, the drug-to-antibody ratio (DAR), and the peptide molecular weight using the following formula: […]
# [7] = system: N. gonorrhoeae G97687 (MDR strain); assay: Time-to-kill assay; format: cell-based, Neisseria gonorrhoeae; details: G97687, peptide 50 μg mL^−1, GW medium; n = 3
# Protocol: as §12, §13, §14, §15, §16, §17
# [8] = system: N. gonorrhoeae FA1090; assay: microbe, parasite or virus in culture; details: FA1090, FB
# Protocol: as §13, §14, §15, §16
# to fresh media containing all concentrations of antimicrobials for a total of 35 days. […]
smiles,measurement,setting,value
CCCCCCCC(=O)N[C@@H](C(=O)N[C@H](CCN)C(=O)NCC(=O)N[C@H](CO)C(=O)N[C@H](Cc1c[nH]c2ccccc12)C(=O)N[C@@H](CO)C(=O)N[C@@H](CCN)C(=O)N[C@H](CCN)C(=O)N[C@@H](Cc1ccccc1)C(=O)N[C@@H](CCC(=O)O)C(=O)N[C@H](C(=O)N[C@@H](C(=O)N[C@@H](C)C(=O)NCCOCCOCC(=O)N[C@@H](CC(C)C)C(=O)N1CCC[C@H]1C(=O)N[C@@H](CCCNC(=N)N)C(=O)N1CCC[C@H]1C(=O)N1CCC[C@H]1C(=O)O)[C@@H](C)CC)C(C)C)C(C)C [Oct-TriA1-c] (Octanoyl-[dV][dDab]G[dS][dW]S[Dab][dDab]FEV[d(aIle)]A[AEEA]LPRPP-OH),fold reduced hemolytic activity,[1]; compared with unmodified Oct-TriA1,> 25 fold
same,Hemolysis (HC50),"[1]; concentration of peptide or ADC that lyses 50% of erythrocytes, washed human blood 0.5%, 37°C, 1 hr, OD415, melittin 2.5 µM = 100%, PBS = 0%, n = 3",">1,000 μg mL^−1"
same,HC50,"[1]; human erythrocytes, 37°C, 1 hr, OD415",> 1 mg/mL
same,MIC,[2],0.78 µg/mL
same,MIC,[3],6.25 µg/mL
same,MTT (EC50) 4 h,"[4]; MTT reduction OD570, 4 h",101.98 µg/mL
same,MTT (EC50) 24 h,"[4]; MTT reduction OD570, 24 h",78.78 µg/mL
same,MTT (EC50) 48 h,"[4]; MTT reduction OD570, 48 h",61.09 µg/mL
same,MIC,[5],1.56 µg/mL
same,time to undetectable survival,[6],60 min
same,time to no survival,[7],180 min
same,MIC at start of resistance evolution,"[8]; 24 h, MIC = less than 50% growth (OD600) vs no antimicrobial",1.56 µg/mL
same,MIC after 35 d of resistance evolution,"[8]; serial passage 35 d, MIC = less than 50% growth (OD600)",12.5 µg/mL
